Measurements as given in patent publication US6919350B2 (priority 1996, dated 2005).
pEC50, pIC50: −log10 of the molar value. Values joined by “and” are separate entries in the source; they are usually repeats but may differ in a detail not shown here. Identical values can stand only once. “Also recorded” adds a separate entry of the source. Like-named read-outs stand apart in the source and are kept apart here.

Experiments:
delta opioid receptor = molecular target: T1, delta opioid receptor (Rattus norvegicus, UniProt P33533); assay: Delta receptor binding in rat brain membranes (Delta Receptor IC50)
T1 construct: Rat (Sprague-Dawley) brain membranes were prepared; from tissue; host or cells: rat (Sprague-Dawley) brain membranes
Experimental: The assay procedures used for such determinations of delta receptor activity are set out below.
Inhibition of receptor binding: Rat (Sprague-Dawley) brain membranes were prepared and binding assays were performed at 24° C. for 90 minutes as described by Chang, et al. (J. Biol. Chem. 254, 2610 (1979) and Mol. Pharmacol. 16, 91 (1979)) with a filtration method (GF/C filter). Delta receptor binding assays were performed with (^3H)-(+)-4-((α-R*)-α-((2S*,5R*)-4-Allyl-2,5-dimethyl-1-piperazinyl)-3-hydroxybenzyl)-N,N-diethylbenzamide (0.1 nM), having an activity of ˜48 Ci/mmole, or with ^3H-[D-Pen^2,D-Pen^5-(enkephalin)](^3H-DPDPE, 0.1 nM) having an activity of ˜50 Ci/mmole. Non-specific binding was determined in the presence of 1 mM of the unlabeled ligand. The potency of compounds in inhibiting the binding of (^3H)-(+)-4-((α-R*)-α-((2S*,5R*)-4-Allyl-2,5-dimethyl-1-piperazinyl)-3-hydroxy-benzyl)-N,N-diethylbenzamide or ^3H-DPDPE was determined as the concentration which reduced the binding of the labeled compounds by 50 percent (Delta Receptor IC50).

[1] = molecular target: T2, delta opioid receptor in the mouse vas deferens (Mus musculus, UniProt P32300); assay: Electrically stimulated mouse vas deferens, delta opioid agonist potency (ED50)
T2 construct: Vasa deferentia were removed from mice; from tissue; host or cells: mouse vas deferens (isolated organ bath)

[2] = molecular target: T2, delta opioid receptor in the mouse vas deferens; assay: Antagonist potency (pA2, Schild analysis) in electrically stimulated mouse vas deferens
Experimental: In vitro bioassays: Vasa deferentia were removed from mice and suspended between platinum electrodes with 0.5 g of tension in organ bath chambers containing a modified Krebs' buffer of the following composition (millimolar): NaCl, 118; KCl, 4.75; CaCl2, 2.6; KH2PO4, 1.20; NaHCO3, 24.5; and glucose, 11. The buffer was saturated with 95% O2/5% CO2 and kept at 37° C. Tissues were stimulated at supramaximal voltage with 10 Hz pulse trains for 400 msec.; train interval 10 seconds; and 0.5 msec pulse duration. […] The ED50 values were extrapolated from curves showing the dose concentration plotted against the response (Lord, et al., Nature 267, 495, (1977)).

rats [3] = settings: rat, in vivo, iv
rats [4] = assay: Tail-pinch analgesia during alfenta infusion with delta agonist (Example 14); format: in vivo, rat; settings: continuous i.v. infusion of alfenta and i.v. bolus of various doses
Experimental: Analgesia was also assessed with a tail-pinch method at the same time points that blood was drawn.

rats [5] = assay: animal or person; format: in vivo; settings: Rattus norvegicus, iv, read-out: ED50 to produce analgesia
in vivo = settings: rat, iv
[6] = rat brain membranes, radioligand 3H-[D-Pen2,D-Pen5]-(enkephalin) 0.1 nM, read-out: Delta Receptor IC50
[7] = inhibition of electrically induced muscle contractions, read-out: Mouse Vas Deferens ED50
[8] = blockade of inhibitory effect of [D-Ala2,D-Leu5] enkephalin (footnote b)

T1 sequence (P33533 whole entry): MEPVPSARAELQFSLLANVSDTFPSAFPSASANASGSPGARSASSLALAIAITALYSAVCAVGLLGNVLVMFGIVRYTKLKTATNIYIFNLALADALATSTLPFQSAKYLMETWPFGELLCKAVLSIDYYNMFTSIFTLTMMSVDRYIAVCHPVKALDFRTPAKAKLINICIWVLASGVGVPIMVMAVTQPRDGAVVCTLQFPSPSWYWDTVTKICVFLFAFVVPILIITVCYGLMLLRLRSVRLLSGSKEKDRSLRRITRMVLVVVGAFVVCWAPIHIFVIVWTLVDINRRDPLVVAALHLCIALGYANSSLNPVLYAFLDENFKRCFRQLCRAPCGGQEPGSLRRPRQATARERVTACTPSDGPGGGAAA
T2 sequence (P32300 whole entry): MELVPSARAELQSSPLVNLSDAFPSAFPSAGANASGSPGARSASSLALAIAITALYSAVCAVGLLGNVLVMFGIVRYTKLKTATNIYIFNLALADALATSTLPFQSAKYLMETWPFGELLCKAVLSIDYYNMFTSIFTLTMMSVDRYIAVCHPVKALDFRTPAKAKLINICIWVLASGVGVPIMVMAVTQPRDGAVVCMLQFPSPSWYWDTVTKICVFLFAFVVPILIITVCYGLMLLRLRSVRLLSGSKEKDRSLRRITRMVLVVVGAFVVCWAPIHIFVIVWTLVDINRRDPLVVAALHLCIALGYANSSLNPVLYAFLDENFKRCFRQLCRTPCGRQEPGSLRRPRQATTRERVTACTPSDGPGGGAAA

3-((αR)-α-((2S,5S)-4-Allyl-2,5-dimethyl-1-piperazinyl)benzyl)phenol and 3-((αS)-α-((2S,5S)-4-Allyl-2,5-dimethyl-1-piperazinyl)benzyl)phenol [Compound 9]
pIC50 (delta opioid receptor; [6]): 8.82 | pEC50 [1, 7]: 6.35

C=CCN1[C@H](C)CN(C(c2ccc(C(=O)N(CC)CC)cc2)c2cccc(O)c2)C[C@@H]1C (mixture of isomers) [Compound 23, (±)-cis-4-(α-(4-Allyl-3,5-dimethyl-1-piperazinyl)-3-hydroxybenzyl)-N,N-diethylbenzamide]
pIC50 (delta opioid receptor; [6]): 8.48 | pEC50 [1, 7]: 7.38

C=CCN1C[C@H](C)N([C@@H](c2cccc(O)c2)c2cccc(C(N)=O)c2)C[C@H]1C (relative stereo) [Compound 6, (±)-3-((αR*)-α-((2S*,5R*)-4-Allyl-2,5-dimethyl-1-piperazinyl)-3-hydroxybenzyl)-benzamide]
pIC50 (delta opioid receptor; [6]): 8.40 | pEC50 [1, 7]: 7.60

CCN(CC)C(=O)c1ccc([C@H](c2cccc(O)c2)N2C[C@H](C)N(C)C[C@H]2C)cc1 (relative stereo) [Compound 10, (±)-N,N-diethyl-4-((αR*)-3-hydroxy-α-((2R*,5S*)-2,4,5-trimethyl-1-piperazinyl)benzyl)benzamide]
pIC50 (delta opioid receptor; [6]): 8.96 | pEC50 [1, 7]: 7.05 | melting point: 220 to 221 °C

C/C=C\CN1[C@H](C)CN(C(c2ccc(C(=O)N(CC)CC)cc2)c2cccc(O)c2)C[C@@H]1C (relative stereo) [Compound 17, cis-4-(α-(4-((Z)-2-butenyl)-3,5-dimethyl-1-piperazinyl)-3-hydroxybenzyl)-N,N-diethylbenzamide]
pIC50 (delta opioid receptor; [6]): 8.82 | Kb ([2]; blockade of inhibitory effect of (±)-4-((α-R*)-α-((2S*,5R*)-4-allyl-2,5-dimethyl-1-piperazinyl)-3-hydroxybenzyl)-N,N-diethylbenzamide (footnote c)): 6.31 nM

C=CCN1C[C@@H](C)N([C@H](c2ccc(S(C)(=O)=O)cc2)c2cccc(O)c2)C[C@@H]1C (relative stereo) [Compound 18, (±)-3-((αR*)-α-((2R*,5S*)-4-allyl-2,5-dimethyl-1-piperazinyl)-4-(methylsulfonyl)benzyl)phenol]
pIC50 (delta opioid receptor; [6]): 8.89 | pEC50 [1, 7]: 6.60

C=CCN1C[C@@H](C)N([C@H](c2ccc(S(=O)(=O)N(C)C)cc2)c2cccc(O)c2)C[C@@H]1C (relative stereo) [Compound 19, (±)-4-((αR*)-α-((2R*,5S*)-4-Allyl-2,5-dimethyl-1-piperazinyl)-3-hydroxybenzyl)-N,N-dimethylbenzenesulfonamide]
pIC50 (delta opioid receptor; [6]): 8.59 | pEC50 [1, 7]: 7.43

C=CCN1C[C@H](C)N([C@H](c2ccccc2)c2cccc(O)c2)C[C@H]1C (relative stereo) [Compound 20, (±)-3-((αR*)-α-((2S*,5R*)-4-Allyl-2,5-dimethyl-1-piperazinyl)benzyl)phenol]
pIC50 (delta opioid receptor; [6]): 8.89 | pEC50 [1, 7]: 7.11

C=CCN1C[C@H](C)N([C@H](c2ccc(C(N)=O)cc2)c2cccc(O)c2)C[C@H]1C (relative stereo) [Compound 21, (±)-4-((αR*)-α-((2S*,5R*)-4-Allyl-2,5-dimethyl-1-piperazinyl)-3-hydroxybenzyl)benzamide]
pIC50 (delta opioid receptor; [6]): 8.80 | pEC50 [1, 7]: 7.36

CCN(CC)C(=O)c1ccc([C@H](c2cccc(O)c2)N2C[C@H](C)NC[C@H]2C)cc1 (relative stereo) [Compound 22, (±)-4-((αR*)-α-((2R*,5S*)-2,5-Dimethyl-1-piperazinyl)-3-hydroxybenzyl)-N,N-diethylbenzamide]
pIC50 (delta opioid receptor; [6]): 9.15 | pEC50 [1, 7]: 5.36

C=CCN1C[C@@H](C)N([C@H](c2ccc(C(=O)N(CC)CC)cc2)c2cccc(O)c2)C[C@H]1C (stereo in doubt) [Compound 1, (−)-4-((αR)-α-((2R,5R)-4-allyl-2,5-dimethyl-1-piperazinyl)-3-hydroxybenzyl)-N,N-diethylbenzamide]
pIC50 (delta opioid receptor): 8.70 | pEC50 [1]: 7.37

C=CCN1C[C@H](C)N([C@H](c2ccc(C(=O)N(CC)CC)cc2)c2cccc(O)c2)C[C@H]1C [BW373U86, (+)-4-((αR)-α-((2S,5R)-4-allyl-2,5-dimethyl-1-piperazinyl)-3-hydroxybenzyl)-N,N-diethylbenzamide]
effect on alfenta-induced respiratory depression (blood pCO2) (rats [3]): dose dependently reduced the level of pCO2; also recorded: blocks the respiratory depression | effect on analgesia induced by alfenta (tail-pinch) (rats [4]): did not significantly affect the analgesia

C=CCN1C[C@@H](C)N([C@@H](c2ccc(C(=O)N(CC)CC)cc2)c2cccc(O)c2)C[C@H]1C [Compound 2, (−)-4-((αS)-α-((2R,5R)-4-Allyl-2,5-dimethyl-1-piperazinyl)-3-hydroxybenzyl)-N,N-diethylbenzamide]
pIC50 (delta opioid receptor): 9.00

CCCN1C[C@@H](C)N([C@@H](c2ccc(C(=O)N(CC)CC)cc2)c2cccc(O)c2)C[C@H]1C [Compound 4, (−)-4-((αS)-α-((2R,5R)-2,5-Dimethyl-4-propyl-1-piperazinyl)-3-hydroxybenzyl)-N,N-diethylbenzamide]
pEC50 [1, 7]: < 6.00

C=CCN1C[C@H](C)N([C@H](c2ccc(C(N)=O)cc2)c2cccc(O)c2)C[C@@H]1C [Compound 5]
pIC50 (delta opioid receptor; [6]): 8.80 | pEC50 [1, 7]: 6.59

CCN(CC)C(=O)c1ccc([C@H](c2cccc(O)c2)N2C[C@@H](C)NC[C@H]2C)cc1 [Compound 7, N,N-Diethyl-4-((αR)-3-hydroxy-α-((2R,5R)-2,5-dimethyl-1-piperazinyl)benzyl)benzamide]
pIC50 (delta opioid receptor; [6]): 8.96 | pEC50 [1, 7]: 6.25

C=CCN1C[C@H](C)N([C@H](c2ccc(C(=O)N(C)CC)cc2)c2cccc(O)c2)C[C@@H]1C [Compound 8, 4-((αR)-α-((2S,5S)-4-Allyl-2,5-dimethyl-1-piperazinyl)-3-hydroxybenzyl)-N-ethyl-N-methylbenzamide]
pIC50 (delta opioid receptor; [6]): 9.07 | pEC50 [1, 7]: 7.52

C[C@H]1CN([C@H](c2ccc(C(=O)N3CCCCC3)cc2)c2cccc(O)c2)[C@@H](C)CN1C [Compound 12, 3-((αR)-4-(piperidinocarbonyl)-α-((2S,5S)-2,4,5-trimethyl-1-piperazinyl)benzyl)phenol]
pIC50 (delta opioid receptor; [6]): 8.92 | pEC50 [1, 7]: 6.60

C[C@H]1CN([C@H](c2ccc(C(=O)N3CCCC3)cc2)c2cccc(O)c2)[C@@H](C)CN1C [Compound 13, 3-((αR)-4-(1-pyrrolidinylcarbonyl)-α-((2S,5S)-2,4,5-trimethyl-1-piperazinyl)benzyl)phenol]
pIC50 (delta opioid receptor; [6]): 9.52 and 9.10 | pEC50 [1, 7]: 6.70

CCN(CC)C(=O)c1ccc([C@@H](c2cccc(O)c2)N2C[C@H](C)N(C)C[C@@H]2C)cc1 [Compound 14, (+)N,N-Diethyl-4-(3-hydroxy-(αS)-α-((2S,5S)-2,4,5-trimethyl-1-piperazinyl)benzyl)-benzamide]
pIC50 (delta opioid receptor; [6]): 8.70 | Kb [2, 8]: 79.4 nM

CCN(CC)C(=O)c1ccc([C@H](c2cccc(O)c2)N2C[C@@H](C)N(C)C[C@H]2C)cc1 [Compound 15, N,N-diethyl-4-(3-hydroxy-(αR)-α-((2R,5R)-2,4,5-trimethyl-1-piperazinyl)benzyl)benzamide]
pIC50 (delta opioid receptor; [6]): 8.55

CCN(C)C(=O)c1ccc([C@H](c2cccc(O)c2)N2C[C@H](C)N(C)C[C@@H]2C)cc1 [Compound 16, N-ethyl-4-((αR)-3-hydroxy-α-((2S,5S)-2,4,5-trimethyl-1-piperazinyl)benzyl)-N-methylbenzamide]
pIC50 (delta opioid receptor; [6]): 8.51 | Kb [2, 8]: 63.1 nM

C=CCN1C[C@H](C)N([C@@H](c2cccc(O)c2)c2cccc(C(=O)N(C)c3cccc(F)c3)c2)C[C@H]1C [Compound 3290W93]
ED50 (rats [5]): 0.08 mg/kg | ED50 (in vivo): 2 mg/kg

cis-4-(α-(3,5-Dimethyl-4-(methylallyl)-1-piperazinyl)-3-hydroxybenzyl)-N,N-diethylbenzamide [Compound 24]
pEC50 [1, 7]: 7.70
